Measurements: patent US9458492B2, “Methods and cells for identifying RIG-I pathway regulators” (Kineta, Inc., priority 2011, dated 2016)
“Also recorded” adds a separate entry of the source.

Columns and labels:
ISG54 promoter = ISG54 promoter luciferase reporter assay / high-throughput screen in Huh 7 cells; type: cell-based, human
Description: A compound referred to herein as “KIN101” was identified by the screening methods disclosed herein as a RIG-I modulator. Huh 7 cells stably expressing a luciferase cistron driven by the ISG54 promoter were treated with KIN101 for 18 hours and then analyzed for luciferase production. […] Huh 7 cells were stably transfected with a luciferase promoter construct driven by the consensus ISG54 promoter. The following sequence was inserted into the pGL4.17 construct (Promega) using the restriction sites indicated (underlined): Reporter cell lines were cultured under antibiotic selection until seeding. Cells were seeded in white opaque bottom 96-well tissue culture plates at a density of 1×10^4 cells/well and grown for 24 hours without antibiotic selection. […] The remainder of the wells were treated with compound diluted to a final concentration of 10 μM in media containing 0.5% DMSO. Cells were incubated with control or compound treatment for 24 hours. Steady-Glo luciferase reagent (Promega) was added at 50 μL per well, mixed thoroughly, and incubated at room temperature for 20 minutes. Luminescence was quantitated per well using a luminometer (Berthold). Confirmation of initial hits was performed in triplicate.

HCV-2a = HCV-2a antiviral assays in Huh 7 cells (immunofluorescence, qPCR); type: cell-based, Hepatitis C virus; conditions: Huh7 cells, HCV-2a MOI 1.0
Description: Huh 7 cells were treated with KIN101 for 24 hours and then infected with HCV-2a MOI=1.0. Cells were grown for an additional 48 hours and then stained for HCV proteins. The number of infected cells versus concentration of KIN101 added was plotted in panel A.
Huh 7 cells were pre-treated with KIN101 at 10 uM and grown for 18 hours. Cells were then infected with HCV-2a MOI=1.0 and grown for an additional 72 hours. Supernatants from infected cells were harvested, HCV RNA was purified and viral RNA quantitated utilizing Real Time PCR with HCV specific primers. Cells infected with HCV that were not KIN101-treated were utilized as a control and values set to 100% infection rate. Interferon-alpha was used as a positive control for HCV inhibition.
Huh 7 cells were infected with HCV-2a MOI=1.0 and 4 hours following infection compounds or interferon were added to infected cells. The remainder of experiment was performed as described for FIG. 7B.
Huh 7 cells were seeded as described above for the IRF-3 immunofluorescent assay. Cells were treated with 10 μM compound in media containing 0.5% DMSO. […] The number of infected cells was quantitated based on positive staining. […]
Huh 7 cells were seeded and treated as described above for the HCV antiviral assay. […] The genome copies of HCV2a in 5 μL of RNA purified from supernatants was quantitated by qPCR. […]

RSV A2 strain = assay: RSV-infected HeLa cell viability (trypan blue count); type: cell-based, respiratory syncitial virus (RSV); conditions: HeLa cells, RSV A2 MOI=1.0, treated 48 hours
Description: HeLa cells were infected with RSV A2 strain MOI=1.0 and were then treated with KIN101 for 48 hours. Cells were grown under normal growth conditions and cell viability was determined by counting the number of live cells and comparing drug treated and RSV infected cells to infected cells that were mock treated (no drug; vehicle alone). Cells were stained with trypan blue and counted using a hemacytometer. The number of live cells versus concentration of KIN101 added was plotted.

[1] = system: proteins downstream of IRF activation; assay: Western blot of IRF centric gene products in treated cells; type: cell-based, human; conditions: after KIN101 treatment; IFN-β positive control
Excerpt: Western blot was used to quantitate levels of IRF centric gene products in human whole cell lysates from cells treated with KIN101.

[2] = system: Influenza A virus WSN strain; assay: Influenza A antiviral assays (NP ELISA, western blot); type: cell-based; conditions: NP protein ELISA / western blot
Dengue virus serotype 2 = assay: Dengue virus protein western blot in HEK 293 cells; type: cell-based; conditions: 0.1 uM, pre-treated 18 hours, MOI=1.0, 48 hours
Description: HEK 293 cells were seeded to a confluency of 80% in a 6-well dish. Cells were grown for 18 hours under normal growth conditions. Cells were treated with the indicated concentration of KIN101 in media containing 0.5% DMSO for 18 hours. The next day drug was removed from treated cells and cells were infected with Dengue virus serotype 2 at an MOI=1.0; infected cells were incubated under normal growth conditions for 48 hours. For Dengue virus analysis whole cell lysates were prepared and analyzed by western blot for Dengue virus specific proteins.

actin promoter = actin promoter luciferase counter screen in Huh 7 cells; type: cell-based, human; conditions: 10 uM
IRF-3 [3] = assay: Immunofluorescent assay for nuclear translocation of IRF-3 in Huh7 cells; type: cell-based, human; conditions: 10 μM, 18 h
Description: Huh 7 cells were seeded in clear bottom 96-well tissue culture plates at a density of 5×10^3 cells per well and grown for 24 hours. Cells were treated with compounds at final concentrations of 20 μM and 10 μM in media containing 0.5% DMSO. Negative control cells contain 0.5% DMSO only and positive control cells were infected with 10 HA of Sendai virus. […] Staining was performed as directed by instructions in the Cellomics translocation kit (Thermo Scientific). Rabbit polyclonal antibody against IRF-3 was used (1:400). Secondary anti-rabbit antibody conjugated to Dylight 488 (FITC equivalent) and Hoescht dye (nuclear stain) were used for detection of cellular IRF-3 and cell nuclei. Following secondary antibody incubation the monolayers were washed and left in 100 μL wash buffer for imaging. IRF-3 (FITC) and nuclear staining (DAPI) were viewed and quantitated by inverted microscope. Images were taken using MetaMorph software and saved as high resolution image files. Compound treatments were done in triplicate.

IRF-3 [4] = assay: IRF-3 nuclear translocation in cells expressing HCV NS3-4A protease (viral countermeasure); conditions: human osteosarcoma cells expressing HCV NS3-4A protease, 10 μM, 18 h
Description: Human osteosarcoma cells were stably transformed with the HCV NS3-4A protease coding sequence under control of a tetracycline inducible promoter. Cells were grown in the presence of tetracycline to keep expression of HCV protease off. […] Sendai virus infection was used as a control for IRF-3 translocation that was inhibited by HCV NS3-4A protease. Mock-treated cells were grown in media containing 0.5% DMSO. Images were analyzed on an Array Scan VTI to quantitate the IRF-3 staining in the nucleus and cytoplasm.
U2OS NS3/4A cells were thoroughly washed to remove Tetracycline and then seeded for the assay in the absence of Tetracycline to enable NS3/4A expression. Compound treatments were done as described above for Huh 7 cells.

Huh7 cells = type: cell-based, human
Description: To assess a potential effect of KIN101 on cellular metabolism, Huh7 cells were grown for 48 hours with increasing doses of KIN101 and analyzed using an MTS assay (the higher the O.D. the more metabolism occurring).
Huh 7 cells were seeded in clear bottom 96-well tissue culture plates and grown for 24 hours. Seeded cells were treated with increasing concentrations of compound (0, 5, 10, 20, and 50 μM in media containing 0.5% DMSO) for 24 hours. Negative control wells contained 0.5% DMSO only and positive control for cytotoxicity was examined using an EMCV infection which causes 100% cytopathic effect. The proportion of viable cells was calculated using a cell viability assay that measures conversion of a tetrazolium compound [[…]-5-(3-carboxymethoxyphenyl)-2-(4-sulfophenyl)-2H-tetrazolium, inner salt; MTS] to a colored formazan compound in live cells. The conversion of MTS to formazan was detected by a 96-well microtiter plate reader, and the resulting optical densities (O.D.) were used directly to estimate cell viability. Cells were incubated for three hours in the presence of one-step reagent (Cell Titer One, Promega) before O.D. reading was done. Experiments were performed in triplicate.

RSV = RSV plaque formation in HeLa cells; type: cell-based, respiratory syncitial virus (RSV); conditions: MOI=1.0 or 0.1, 10 uM in agar overlay, 3-4 days
Description: HeLa cells were seeded to 90% confluency and infected with RSV at MOI=1.0 (1^3 dilution) or MOI=0.1 (1^4 dilution) for 2 hours. Virus was removed and cells were overlayed with agar in the presence of KIN101 10 uM. Infected cells were incubated for 3-4 days to allow for RSV plaque formation. Plaques were visualized by staining with crystal violet.

RSV-A2 = assay: RSV viral RNA by Real Time PCR in HeLa supernatants; type: cell-based, respiratory syncitial virus (RSV); conditions: RSV-A2 MOI=1.0, 48 hours
Description: HeLa cells were infected with RSV-A2 MOI=1.0 and subsequently treated with KIN101 at the indicated concentrations and grown for 48 hours. Supernatants from infected cells were harvested, RSV RNA was purified and viral RNA quantitated utilizing Real Time PCR with RSV specific primers. Cells infected with RSV that were not KIN101-treated were utilized as a control.

MRC5 cells = assay: Expression microarray analysis of KIN101-treated MRC5 cells; type: cell-based, human; conditions: 10 μM
Description: Expression microarray analysis and bioinformatics were performed as follows. Total RNA isolation and mRNA amplification were performed on equal masses of total RNA from MRC5 cells treated with either DMSO, negative control, or 10 μM KIN101 at 20 hours post treatment, and from MRC5 cells infected with Sendai virus at 20 hours post infection. Probe labeling and microarray slide hybridization were performed with the Agilent Whole Human Genome microarrays, wherein each microarray contains 44K probes, corresponding to approximately 41,000 human genes. Slides were scanned with an Agilent DNA microarray scanner, and the resulting images were analyzed using Agilent Feature Extractor (AFE) version 9.5.3.1. All data were entered into a custom-designed Oracle 9i-backed relational database (Labkey, Inc., Seattle, Wash.) and uploaded into Rosetta Resolver System 7.2 (Rosetta Biosoftware) and Spotfire Decision Site 9.1.1 (Spotfire AB) for analysis and visualization. […] Functional analysis of statistically significant gene expression changes was performed with IPA® (Ingenuity Systems, Inc., Redwood City, Calif.). This software analyzes RNA expression data in the context of known biological response and regulatory networks as well as other higher-order response pathways. IPA functional analysis identified biological functions and/or diseases that were most significant among differentially regulated genes. In the functional networks, genes are represented as nodes, and the biological relationship between 2 nodes is represented as an edge (line). All edges are supported by at least 1 published reference or from canonical information stored in the Ingenuity Pathways Knowledge Base. MRC5 cells were treated with KIN101 (10 μM) or a negative control (selected from the diversity library for having no activity in screening assays) for 20 h. Sendai virus infection was used as a positive control for the up-regulation of innate immune pathways. Total RNA was purified from triplicate samples to enable statistical analysis of the microarray data.

[5] = 20 h, ANOVA p-value <0.01, >2 fold change

Compound: CS(=O)(=O)Oc1ccc2c(=O)c(-c3ccc(Br)cc3)coc2c1 [KIN101]
- hit in high-throughput screen for ISG54 luciferase reporter activity (RIG-I agonist activity) (ISG54 promoter; 20,000-member diversity library screened at 10 μM, four standard deviation threshold): hits
- luciferase expression under control of the ISG54 promoter (ISG54 promoter; Huh 7 cells, treated 18 hours, increasing doses): dose dependent increase in luciferase expression
- antiviral activity against HCV (HCV-2a): antiviral activity
- protection from RSV induced cytopathic effects and cell death (RSV A2 strain): protects cells from RSV induced cytopathic effects and cell death
- abundance of proteins downstream of IRF activation (Western blot) [1]: increased abundance of proteins downstream of IRF activation
- antiviral activity against Influenza A [2]: antiviral activity
- inhibition of Dengue virus protein accumulation (Dengue virus serotype 2): substantially complete inhibition
- expression of luciferase under control of the actin promoter (actin promoter): did not increase expression of luciferase
- IRF-3 nuclear translocation (IRF-3 [3]): induced nuclear translocation of IRF-3; also recorded: induction of IRF-3 nuclear translocation
- IRF-3 nuclear translocation in the presence of viral countermeasure (IRF-3 [4]): induction of IRF-3 nuclear translocation
- effect on cellular metabolism (MTS assay) (Huh7 cells): did not affect cellular metabolism
- number and size of RSV induced plaques (RSV): decreases the number and size of viral induced plaques
- amount of RSV viral RNA produced by infected cells (RSV-A2): decreases the amount of RSV viral RNA produced by infected cells
- differentially expressed genes compared to DMSO treatment (MRC5 cells; [5]): 75 genes
- down-regulated genes compared to DMSO treatment (MRC5 cells; [5]): 11 genes
- up-regulated genes compared to DMSO treatment (MRC5 cells; [5]): 64 genes
- expression of immune pathways (MRC5 cells; 20 hours post treatment): induced expression of discrete immune pathways centered on IRF signaling
